How the values were obtained:
[1] = Blood chemistry and hematology in Sod1 mutant and wild type mice; conditions: daily oral 12 mg/kg
Method: (§1) A total of 84 male mice (64 transgenic Sod1 mutant mice; 20 wild type mice) were included in the study. Dosing was administered daily beginning at postnatal day 38 (P38) via a single bolus oral gavage injection.
(§2) Blood and serum samples from days P70 and P100 were collected on three animals from each of the six treatment groups. Hematology measures were white blood cell count, red blood cell count, hemoglobin, hematocrit, mean corpuscular volume, mean corpuscular hemoglobin, mean corpuscular hemoglobin concentration, and platelets. Chemistry values were alanine aminotransferase, aspartate aminotransferase, albumin, total protein, gamma globulin, blood urea nitrogen, cholesterol, and glucose.

[2] = tested on: Sprague Dawley rats, KA injected into the hippocampus; experiment: Time course of neuroprotection in the kainic acid model; type: in vivo, rat; conditions: for Difference of mean fraction damaged to pooled PBS / Mean fraction of hippocampus cells having KA-induced damage: 12 mg/kg oral; for Mean fraction of hippocampus cells having KA-induced damage: pooled PBS 0.187
Method: CNS-102 was administered orally to Sprague Dawley rats at 12 mg/kg. After dosing, KA was stereotactically injected into the hippocampus at 24, 48, 72, 96 and 168 hours to induce neuron damage. After 24 h, hippocampus tissue was collected, stained, and imaged. The scans were analyzed by Image J to calculate the fraction of cells having KA-induced damage. Average fraction damaged in the hippocampus from ten animals for each treatment (PBS vs. 12 mg/kg CNS-102) by time (24, 48, 72, 96 and 168 hours) combination was estimated with PROC MIXED in SAS. Comparisons of the CNS-102 treatment groups to the pooled PBS treatment at the different times can be made, giving the results tabulated below.

[3] = mouse, in vivo, po, 12 mg/kg
Method: as §1, §2

[4] = tested on: HSP70; experiment: HSP70 expression in Neuro2A cells by western blot; type: cell-based, mouse; conditions: Neuro2A cells, western blot
Method: Differentiation was induced and cells incubated with geranylgeranyl transferase I inhibitor, GGTI-298. Cells were harvested and lysates were prepared and analyzed by western blot for HSP70 and HSP90. Western signals in the absence of the compounds were normalized as 1.00.

[5] = tested on: HSP70; experiment: HSP70 expression in cortex and hippocampus by western blot after oral dosing; type: in vivo, rat; design: HSP70 expression, treatment average: scale not given here
Method: The time course of protein expression, as measured by western blot for HSP70, was determined in triplicate for hippocampus, and cortex tissue samples taken from each of 5 animals per group at each of four time points (24, 48, 72, and 96 h) after treatment with either PBS or 12 mg/kg CNS-102, administered orally. The average expression for each treatment group is calculated at each time point for each tissue using PROC MIXED in SAS and are tabulated, along with the difference (delta) between treatment averages and a p-value comparing the difference to zero, below.

[6] = tested on: Murine neuro2A neuroblastoma cells; experiment: Neurite outgrowth of neuro2A cells inhibited with GGTI-298 (Example 30); type: cell-based, mouse; conditions: for Relative %: relative to uninhibited count
Method: Differentiation was induced and cells incubated with geranylgeranyl transferase I inhibitor, GGTI-298. After 24 h digital images were taken and neurite outgrowth was quantified. The comparisons of the neuroprotective effect of these three compounds are shown below.
The estimated mean log10 counts, from five replicate wells for each treatment group were calculated by PROC GLM in SAS assuming a pooled estimate of variation.
The estimated mean log10 counts from five replicate wells for each treatment group were calculated by PROC GLM in SAS assuming a pooled estimate of variation.
Differences in mean log(counts) between treatments for each concentration were calculated using PROC GLM in SAS. The p-value given is for the comparison of the estimated difference to zero, the expected difference value for no treatment effect. The anti-log of the differences represent the estimated ratio of counts (relative effect on inhibition) and are tabulated below along with the lower and upper 95% confidence intervals.

[7] = Pharmacokinetics of CNS-102 in rats, IV and oral; type: in vivo; conditions: rat
Method: Rats were administered a single dose of CNS-102 either intravenously (12 mg/kg) or orally (24 mg/kg), and blood samples were taken to measure the average plasma concentrations of CNS-102 over time.
The formulation for this study includes the following: […]
AUC(0-last) (min*ng/ml): area under the concentration-time curve from zero up to the last measurable time-point.
lz (1/min): the first order rate constant associated with the terminal (log-linear) portion of the curve, estimated by linear regression of time vs. log concentration.
Terminal Half-Life (t½)=ln(2)/lz: calculated using Lambda_z method to find best fit. If necessary, the concentration-time points were manually selected for use in the calculation. Bolded-italicized concentrations indicate points used for calculation.
AUC(0-inf) (min*ng/ml): Area under the concentration-time curve from zero up to infinity, based on the last observed concentration. Requires lz.

[8] = tested on: Mouse Neuro2A neuroblastoma cells; experiment: Neuro2A cells with neurites after GGTI-298 (Example 16); type: cell-based; conditions: 10 μM, 48 hrs
Method: Mouse Neuro2A neuroblastoma cells were cultured in DMEM supplemented with 10% FBS for 24 hrs. […] Then differentiation was induced by retinoic acid in DMEM supplemented with 2% FBS. The cell culture was incubated with a Geranylgeranyl Transferase inhibitor, GGTI-298. […]

[9] = Cortex, 24 hours after 12 mg/kg oral
[10] = Cortex, 48 hours after 12 mg/kg oral
[11] = Cortex, 72 hours after 12 mg/kg oral
[12] = Cortex, 96 hours after 12 mg/kg oral
[13] = Hippocampus, 24 hours after 12 mg/kg oral
[14] = Hippocampus, 48 hours after 12 mg/kg oral
[15] = Hippocampus, 72 hours after 12 mg/kg oral
[16] = Hippocampus, 96 hours after 12 mg/kg oral

CC(=O)CC/C=C(\C)CC/C=C(\C)CC/C=C(\C)CCC=C(C)C [CNS-102]
cholesterol levels (in words) [1]: cholesterol levels were reduced
Difference of mean fraction damaged to pooled PBS ([2]; KA at 24 hours): 0.005
Mean fraction of hippocampus cells having KA-induced damage ([2]; KA at 24 hours): 0.193
Difference of mean fraction damaged to pooled PBS ([2]; KA at 48 hours): −0.064
Mean fraction of hippocampus cells having KA-induced damage ([2]; KA at 48 hours): 0.123
Difference of mean fraction damaged to pooled PBS ([2]; KA at 72 hours): −0.092
Mean fraction of hippocampus cells having KA-induced damage ([2]; KA at 72 hours): 0.096
Difference of mean fraction damaged to pooled PBS ([2]; KA at 96 hours): −0.056
Mean fraction of hippocampus cells having KA-induced damage ([2]; KA at 96 hours): 0.131
Difference of mean fraction damaged to pooled PBS ([2]; KA at 168 hours): −0.026
Mean fraction of hippocampus cells having KA-induced damage ([2]; KA at 168 hours): 0.162
timepoint of maximal protection effect ([2]; single oral dose of 12 mg/kg): 72 h
ABSOLUTE BASOPHIL [3]: 0 per mm^3
BASOPHIL (%) [3]: 0.0%
CALCIUM [3]: 7.7 mg/dL
CREATININE [3]: <1 mg/dL
DIRECT BILIRUBIN [3]: 0.0 mg/dL
EOSINOPHIL (%) [3]: 1.5%
HCT [3]: 46.0%
INDIRECT BILIRUBIN [3]: 0.0 mg/dL
LYMPHOCYTE (%) [3]: 84.0%
MONOCYTE (%) [3]: 0.8%
NRBC (per 100 WBC) [3]: 0.0 per 100 WBC
PHOSPHORUS [3]: 5.7 mg/dL
PLATELET COUNT (Thousands) [3]: 1128.6 Thousands
RBC (Millions) [3]: 8.8 Millions
TOTAL BILIRUBIN [3]: 0.0 mg/dL
WBC (thousands) [3]: 4.7 thousands
blood and neurology examinations (in words) [3]: no abnormalities in blood and neurology examinations
induction of HSP70 expression (in words) [4]: induce expression of HSP70 at various concentrations
HSP70 expression, delta CNS-PBS [5, 9]: 0.24
HSP70 expression, treatment average [5, 9]: −0.016
HSP70 expression, delta CNS-PBS [5, 10]: 0.11
HSP70 expression, treatment average [5, 10]: −0.45
HSP70 expression, delta CNS-PBS [5, 11]: 0.13
HSP70 expression, treatment average [5, 11]: 0.14
HSP70 expression, delta CNS-PBS [5, 12]: 0.19
HSP70 expression, treatment average [5, 12]: 0.04
HSP70 expression, delta CNS-PBS [5, 13]: −0.088
HSP70 expression, treatment average [5, 13]: −0.159
HSP70 expression, delta CNS-PBS [5, 14]: 0.2
HSP70 expression, treatment average [5, 14]: 0.02
HSP70 expression, delta CNS-PBS [5, 15]: 0.14
HSP70 expression, treatment average [5, 15]: −0.06
HSP70 expression, delta CNS-PBS [5, 16]: 0.17
HSP70 expression, treatment average [5, 16]: −0.32
Median Counts of cells with neurite outgrowth ([6]; 10 nM, CNS-101 vs CNS-102 experiment (no inhibition 95.5, PBS 21.5)): 33.8
Relative % ([6]; 10 nM, CNS-101 vs CNS-102 experiment): 35.4%
Median Counts of cells with neurite outgrowth ([6]; 100 nM, CNS-101 vs CNS-102 experiment (no inhibition 95.5, PBS 21.5)): 43.4
Relative % ([6]; 100 nM, CNS-101 vs CNS-102 experiment): 45.4%
Median Counts of cells with neurite outgrowth ([6]; 100 nM, CNS-102 vs CNS-103 experiment (no inhibition 60.3, PBS 18.5)): 33.5
Relative % ([6]; 100 nM, CNS-102 vs CNS-103 experiment): 55.6%
Median Counts of cells with neurite outgrowth ([6]; 1000 nM, CNS-101 vs CNS-102 experiment (no inhibition 95.5, PBS 21.5)): 51.0
Relative % ([6]; 1000 nM, CNS-101 vs CNS-102 experiment): 53.4%
Median Counts of cells with neurite outgrowth ([6]; 1000 nM, CNS-102 vs CNS-103 experiment (no inhibition 60.3, PBS 18.5)): 23.8
Relative % ([6]; 1000 nM, CNS-102 vs CNS-103 experiment): 39.5%
Median Counts of cells with neurite outgrowth ([6]; 10000 nM, CNS-101 vs CNS-102 experiment (no inhibition 95.5, PBS 21.5)): 38.2
Relative % ([6]; 10000 nM, CNS-101 vs CNS-102 experiment): 40%
maximum protection ([6]; CNS-101 vs CNS-102 experiment, FIG. 4A): ~40%
maximum protection ([6]; CNS-102 vs CNS-103 experiment, FIG. 4B): ~36%
AUC(0-inf), Average ([7]; 12 mg/kg IV): 208728 ng·min/mL
AUC(0-last), Average ([7]; 12 mg/kg IV): 115146 ng·min/mL
C0, Average ([7]; 12 mg/kg IV): 9144.0 ng/mL
Vss, Average ([7]; 12 mg/kg IV): 9.796 L/kg
Vz, Average ([7]; 12 mg/kg IV): 12.039 L/kg
t1/2, Average ([7]; 12 mg/kg IV): 2.45 h
AUC(0-inf), Average ([7]; 24 mg/kg oral): 204878 ng·min/mL
AUC(0-last), Average ([7]; 24 mg/kg oral): 189114 ng·min/mL
Cmax, Average ([7]; 24 mg/kg oral): 752.9 ng/mL
Tmax, Average ([7]; 24 mg/kg oral): 5.67 h
t1/2, Average ([7]; 24 mg/kg oral): 1.72 h
F(0-inf), Average ([7]; 24 mg/kg oral vs 12 mg/kg IV): 49.1%
F(0-last), Average ([7]; 24 mg/kg oral vs 12 mg/kg IV): 82.1%
Mean of cell numbers (Arbitrary units) [8]: 0.738 Arbitrary units

Reference: patent US9045403B2 (Coyote Pharmaceuticals, Inc., priority 2012, dated 2015)
